ChEMBL document CHEMBL6078642, “Design, Synthesis, and Activity Evaluation of BRD4 PROTAC Based on Alkenyl Oxindole-DCAF11 Pair” (J Med Chem, 2024)
pIC50: −log10 of the molar value. The source made the active and inactive calls. No cut-off for these calls is given here.

Assays:
MDA-MB-231 [1] = test: Induction of BRD4 degradation in human MDA-MB-231 cells at 10 uM incubated for 12 hrs by immunoblot analysis; type: cell-based
MDA-MB-468 [2] = test: Antiproliferative activity against human MDA-MB-468 cells assessed as reduction in cell viability incubated for 2 days in presence of tert-butyl 2-(4-methyl-2-((2-oxo-6-(trifluoromethyl)indolin-3-ylidene)methyl)phenoxy)acetate by CCK8 assay; type: functional, cell-based; conditions: MDA-MB-468, 48 h
MDA-MB-231 [3] = test: Induction of apoptosis in human MDA-MB-231 cells assessed as increase in cleaved caspase-7 level by immunoblot analysis; type: functional, cell-based
MDA-MB-231 [4] = test: Antiproliferative activity against human MDA-MB-231 cells assessed as reduction in cell viability incubated for 2 days in presence of tert-butyl 2-(4-methyl-2-((2-oxo-6-(trifluoromethyl)indolin-3-ylidene)methyl)phenoxy)acetate by CCK8 assay; type: functional, cell-based; conditions: MDA-MB-231, 48 h
MDA-MB-231 [5] = test: Induction of apoptosis in human MDA-MB-231 cells assessed as increase in cleaved PARP level by immunoblot analysis; type: functional, cell-based
MDA-MB-231 [6] = test: Antiproliferative activity against human MDA-MB-231 cells assessed as reduction in cell viability incubated for 2 days by CCK8 assay; type: functional, cell-based; conditions: MDA-MB-231, 48 h
MDA-MB-468 [7] = test: Antiproliferative activity against human MDA-MB-468 cells assessed as reduction in cell viability incubated for 2 days by CCK8 assay; type: functional, cell-based; conditions: MDA-MB-468, 48 h
MDA-MB-231 [8] = test: Antiproliferative activity against human MDA-MB-231 cells assessed as reduction in cell viability incubated for 2 days in presence of JQ1 by CCK8 assay; type: functional, cell-based; conditions: MDA-MB-231, 48 h
DCAF11-BRD4 = DCAF11-BRD4 (Homo sapiens, UniProt O60885+Q8TEB1); test: PROTAC activity at DCAF11/BRD4 in human MDA-MB-231 cells assessed as induction of BRD4 degradation at 10 uM incubated for 12 hrs by immunoblot analysis; type: cell-based
Sequence of DCAF11-BRD4 (Q8TEB1 whole entry, looked up, other chains not shown): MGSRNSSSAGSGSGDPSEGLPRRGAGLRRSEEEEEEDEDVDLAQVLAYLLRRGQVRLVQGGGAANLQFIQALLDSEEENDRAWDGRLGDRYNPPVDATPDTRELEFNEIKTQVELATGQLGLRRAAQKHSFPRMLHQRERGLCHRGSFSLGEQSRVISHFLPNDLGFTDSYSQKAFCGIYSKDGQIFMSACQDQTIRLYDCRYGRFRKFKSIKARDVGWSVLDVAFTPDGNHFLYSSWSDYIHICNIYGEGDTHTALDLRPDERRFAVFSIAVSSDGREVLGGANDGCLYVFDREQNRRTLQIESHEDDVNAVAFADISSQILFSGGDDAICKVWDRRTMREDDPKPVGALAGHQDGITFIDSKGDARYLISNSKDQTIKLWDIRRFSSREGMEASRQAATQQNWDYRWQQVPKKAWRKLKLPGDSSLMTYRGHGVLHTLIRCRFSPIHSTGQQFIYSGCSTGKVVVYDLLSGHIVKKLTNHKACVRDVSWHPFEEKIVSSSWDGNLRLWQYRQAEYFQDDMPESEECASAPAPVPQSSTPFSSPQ

MDA-MB-468 [9] = test: Antiproliferative activity against human MDA-MB-468 cells assessed as reduction in cell viability incubated for 2 days in presence of JQ1 by CCK8 assay; type: functional, cell-based; conditions: MDA-MB-468, 48 h

Structure (SMILES) | Activity (MDA-MB-231 [1]) | pIC50 (MDA-MB-468 [2]) | Activity (MDA-MB-231 [3]) | pIC50 (MDA-MB-231 [4]) | Activity (MDA-MB-231 [5]) | pIC50 (MDA-MB-231 [6]) | pIC50 (MDA-MB-468 [7]) | pIC50 (MDA-MB-231 [8]) | Activity (DCAF11-BRD4) | pIC50 (MDA-MB-468 [9])
Cc1sc2c(c1C)C(c1ccc(Cl)cc1)=N[C@@H](CC(=O)O)c1nnc(C)n1-2 | inactive | 5.00 | inactive | 5.43 | inactive | 5.29 | 4.59 |  |  | 
Cc1ccc(OCC(=O)OC(C)(C)C)c(/C=C2\C(=O)Nc3cc(C(F)(F)F)ccc32)c1 |  |  | inactive |  | inactive | 4.94 | 4.57 | 5.43 | inactive | 5.00
